Test results published in ChEMBL document CHEMBL5465560, “Selectivity Literature for EUbOPEN Chemogenomic Library” (2024).
Values belong to the compound of their own block, whether it stands above or below them.

Columns and labels:
[1] = biological target: Ribosomal protein S6 kinase beta-1 (Homo sapiens, UniProt P23443); experiment: Selectivity interaction (ProQinase) EUB0000171b RPS6KB1
[2] = biological target: T1, Ephrin type-B receptor 3 (Homo sapiens) (UniProt P54753); experiment: Selectivity interaction (Kinase panel (DSF assay)) EUB0001559a EPHB3
T1 sequence (whole entry): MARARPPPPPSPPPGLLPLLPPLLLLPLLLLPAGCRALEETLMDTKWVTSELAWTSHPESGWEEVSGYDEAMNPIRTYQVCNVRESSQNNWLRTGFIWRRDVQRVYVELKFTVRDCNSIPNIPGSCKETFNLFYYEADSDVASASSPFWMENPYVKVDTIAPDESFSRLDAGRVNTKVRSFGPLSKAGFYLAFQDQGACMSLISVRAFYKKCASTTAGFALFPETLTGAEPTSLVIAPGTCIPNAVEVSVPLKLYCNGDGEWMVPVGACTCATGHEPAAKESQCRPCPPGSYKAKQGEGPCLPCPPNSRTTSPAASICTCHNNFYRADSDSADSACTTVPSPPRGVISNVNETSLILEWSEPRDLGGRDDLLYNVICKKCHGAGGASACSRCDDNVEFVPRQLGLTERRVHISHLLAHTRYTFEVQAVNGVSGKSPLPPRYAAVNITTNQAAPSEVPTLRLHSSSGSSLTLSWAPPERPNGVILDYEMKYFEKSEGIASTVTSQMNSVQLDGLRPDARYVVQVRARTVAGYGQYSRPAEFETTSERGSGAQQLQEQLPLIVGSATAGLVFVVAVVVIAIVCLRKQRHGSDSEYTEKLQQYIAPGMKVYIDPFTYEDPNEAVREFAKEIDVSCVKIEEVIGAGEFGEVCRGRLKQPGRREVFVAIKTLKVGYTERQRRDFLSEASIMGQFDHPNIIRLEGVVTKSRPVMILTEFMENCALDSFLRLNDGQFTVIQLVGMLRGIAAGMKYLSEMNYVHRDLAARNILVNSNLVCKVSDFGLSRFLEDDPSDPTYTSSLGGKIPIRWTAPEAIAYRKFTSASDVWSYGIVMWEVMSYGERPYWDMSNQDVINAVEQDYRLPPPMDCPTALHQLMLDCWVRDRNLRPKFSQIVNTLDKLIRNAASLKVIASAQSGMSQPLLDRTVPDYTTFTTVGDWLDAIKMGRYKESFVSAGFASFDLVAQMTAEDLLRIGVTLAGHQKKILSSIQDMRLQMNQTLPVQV

[3] = biological target: T2, Phosphorylase b kinase gamma catalytic chain, liver/testis isoform (Homo sapiens) (UniProt P15735); experiment: Selectivity interaction (KinomeScan (DiscoverX)) EUB0000045b PHKG2
T2 sequence (whole entry): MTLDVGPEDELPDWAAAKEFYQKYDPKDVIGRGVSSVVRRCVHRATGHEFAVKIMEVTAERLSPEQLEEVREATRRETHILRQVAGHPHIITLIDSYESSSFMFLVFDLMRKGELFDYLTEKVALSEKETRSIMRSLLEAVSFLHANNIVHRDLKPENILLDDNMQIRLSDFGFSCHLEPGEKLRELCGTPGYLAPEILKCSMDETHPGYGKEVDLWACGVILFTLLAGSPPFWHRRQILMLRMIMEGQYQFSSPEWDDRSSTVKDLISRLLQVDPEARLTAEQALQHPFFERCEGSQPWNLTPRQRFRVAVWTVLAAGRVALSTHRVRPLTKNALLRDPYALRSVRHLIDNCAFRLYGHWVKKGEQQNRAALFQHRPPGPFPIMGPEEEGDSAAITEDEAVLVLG

[4] = biological target: T3, MAP kinase-activated protein kinase 5 (Homo sapiens) (UniProt Q8IW41); experiment: Selectivity interaction (KinomeScan (DiscoverX)) EUB0001079a MAPKAPK5; details: at 1 µM
T3 sequence (whole entry): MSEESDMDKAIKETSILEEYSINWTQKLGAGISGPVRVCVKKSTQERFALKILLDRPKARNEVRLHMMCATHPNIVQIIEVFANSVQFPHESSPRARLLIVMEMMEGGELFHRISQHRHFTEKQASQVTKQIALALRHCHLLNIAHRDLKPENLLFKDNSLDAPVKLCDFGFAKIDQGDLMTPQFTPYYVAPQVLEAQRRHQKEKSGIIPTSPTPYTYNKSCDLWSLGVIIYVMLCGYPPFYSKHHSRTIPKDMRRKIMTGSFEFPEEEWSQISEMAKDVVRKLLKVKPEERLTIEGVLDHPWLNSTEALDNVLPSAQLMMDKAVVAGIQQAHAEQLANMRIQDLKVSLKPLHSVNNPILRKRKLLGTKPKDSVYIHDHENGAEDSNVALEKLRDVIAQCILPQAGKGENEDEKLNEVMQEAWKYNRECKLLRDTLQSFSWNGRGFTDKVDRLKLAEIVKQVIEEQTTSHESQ

[5] = biological target: Activin receptor type-2B (Homo sapiens) (UniProt Q13705); experiment: Selectivity interaction (KinomeScan (DiscoverX)) EUB0000618a ACVR2B; details: at 10 µM
Sequence of Activin receptor type-2B (Homo sapiens) (Q13705 whole entry): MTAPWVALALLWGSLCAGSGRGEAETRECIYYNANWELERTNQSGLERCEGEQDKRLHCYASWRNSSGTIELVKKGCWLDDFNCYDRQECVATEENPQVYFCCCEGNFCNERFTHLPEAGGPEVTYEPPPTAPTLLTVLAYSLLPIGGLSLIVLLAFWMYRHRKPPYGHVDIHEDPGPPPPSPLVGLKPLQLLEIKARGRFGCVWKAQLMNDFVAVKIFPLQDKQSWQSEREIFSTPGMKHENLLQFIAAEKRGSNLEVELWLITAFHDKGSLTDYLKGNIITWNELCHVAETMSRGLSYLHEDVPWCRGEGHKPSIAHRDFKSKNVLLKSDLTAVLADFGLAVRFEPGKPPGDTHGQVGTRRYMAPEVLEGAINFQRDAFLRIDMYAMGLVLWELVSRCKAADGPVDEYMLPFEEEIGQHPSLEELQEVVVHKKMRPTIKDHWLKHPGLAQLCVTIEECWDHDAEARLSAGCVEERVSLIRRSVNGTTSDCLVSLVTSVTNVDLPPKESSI

[6] = biological target: Tyrosine-protein kinase Lck (Homo sapiens, UniProt P06239); experiment: Selectivity interaction (KinomeScan (DiscoverX)) EUB0000618a LCK; details: at 10 µM
Sequence of Tyrosine-protein kinase Lck (P06239 2-509 limits assumed): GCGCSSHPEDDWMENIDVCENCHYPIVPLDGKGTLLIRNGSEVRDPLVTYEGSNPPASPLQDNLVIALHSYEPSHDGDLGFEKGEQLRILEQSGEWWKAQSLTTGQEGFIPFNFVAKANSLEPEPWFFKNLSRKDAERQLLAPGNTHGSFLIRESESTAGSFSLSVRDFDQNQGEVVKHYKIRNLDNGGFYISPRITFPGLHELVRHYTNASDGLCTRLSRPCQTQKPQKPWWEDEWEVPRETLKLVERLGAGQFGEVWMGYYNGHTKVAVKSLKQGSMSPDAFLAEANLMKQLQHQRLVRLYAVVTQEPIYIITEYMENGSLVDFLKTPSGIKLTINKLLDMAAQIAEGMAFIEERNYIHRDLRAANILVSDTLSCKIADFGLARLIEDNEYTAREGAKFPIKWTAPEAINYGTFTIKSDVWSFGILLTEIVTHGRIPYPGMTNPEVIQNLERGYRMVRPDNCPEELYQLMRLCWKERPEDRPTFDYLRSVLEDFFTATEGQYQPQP

[7] = biological target: Calcium/calmodulin-dependent protein kinase type II subunit gamma (Homo sapiens) (UniProt Q13555); experiment: Selectivity interaction (ActivX KiNativ screen (ex vivo kinase selectivity in human PBMCs)) EUB0001619a CAMK2G; type: cell-based; details: PBMC, at 1 µM
Sequence of Calcium/calmodulin-dependent protein kinase type II subunit gamma (Homo sapiens) (Q13555 whole entry): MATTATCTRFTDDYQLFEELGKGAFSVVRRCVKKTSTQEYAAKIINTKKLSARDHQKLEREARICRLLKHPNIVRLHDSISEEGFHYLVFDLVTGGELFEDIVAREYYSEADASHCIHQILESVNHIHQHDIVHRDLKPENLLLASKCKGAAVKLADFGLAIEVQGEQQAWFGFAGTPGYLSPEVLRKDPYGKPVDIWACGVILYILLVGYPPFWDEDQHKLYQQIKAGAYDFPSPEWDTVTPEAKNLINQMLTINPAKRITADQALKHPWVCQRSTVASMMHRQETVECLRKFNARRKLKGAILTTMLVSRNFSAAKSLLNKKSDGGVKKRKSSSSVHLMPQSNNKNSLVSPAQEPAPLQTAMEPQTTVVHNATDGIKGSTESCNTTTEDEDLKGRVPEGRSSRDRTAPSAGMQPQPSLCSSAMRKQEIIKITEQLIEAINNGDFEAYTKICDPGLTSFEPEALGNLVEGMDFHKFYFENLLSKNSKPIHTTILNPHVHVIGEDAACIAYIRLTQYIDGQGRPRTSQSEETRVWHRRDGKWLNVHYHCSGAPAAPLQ

[8] = biological target: MAP kinase-interacting serine/threonine-protein kinase 2 (Homo sapiens, UniProt Q9HBH9); experiment: Selectivity interaction (KinomeScan (DiscoverX)) EUB0001619a MKNK2; details: at 1 µM
Sequence of MAP kinase-interacting serine/threonine-protein kinase 2 (Q9HBH9 whole entry, looked up): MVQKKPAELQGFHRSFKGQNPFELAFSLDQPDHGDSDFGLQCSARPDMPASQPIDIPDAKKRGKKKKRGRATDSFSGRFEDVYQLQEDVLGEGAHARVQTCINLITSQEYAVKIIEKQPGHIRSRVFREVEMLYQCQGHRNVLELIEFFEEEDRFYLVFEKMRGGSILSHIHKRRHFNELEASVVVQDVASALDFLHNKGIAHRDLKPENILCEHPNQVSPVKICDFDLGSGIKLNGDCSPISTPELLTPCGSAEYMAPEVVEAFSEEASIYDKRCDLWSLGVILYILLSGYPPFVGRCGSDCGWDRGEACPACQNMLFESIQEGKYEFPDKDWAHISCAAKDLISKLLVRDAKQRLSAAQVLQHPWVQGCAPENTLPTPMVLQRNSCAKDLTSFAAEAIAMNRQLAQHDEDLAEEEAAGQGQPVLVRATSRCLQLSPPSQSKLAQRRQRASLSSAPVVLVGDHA

Sequence of Ribosomal protein S6 kinase beta-1 (P23443 whole entry, looked up): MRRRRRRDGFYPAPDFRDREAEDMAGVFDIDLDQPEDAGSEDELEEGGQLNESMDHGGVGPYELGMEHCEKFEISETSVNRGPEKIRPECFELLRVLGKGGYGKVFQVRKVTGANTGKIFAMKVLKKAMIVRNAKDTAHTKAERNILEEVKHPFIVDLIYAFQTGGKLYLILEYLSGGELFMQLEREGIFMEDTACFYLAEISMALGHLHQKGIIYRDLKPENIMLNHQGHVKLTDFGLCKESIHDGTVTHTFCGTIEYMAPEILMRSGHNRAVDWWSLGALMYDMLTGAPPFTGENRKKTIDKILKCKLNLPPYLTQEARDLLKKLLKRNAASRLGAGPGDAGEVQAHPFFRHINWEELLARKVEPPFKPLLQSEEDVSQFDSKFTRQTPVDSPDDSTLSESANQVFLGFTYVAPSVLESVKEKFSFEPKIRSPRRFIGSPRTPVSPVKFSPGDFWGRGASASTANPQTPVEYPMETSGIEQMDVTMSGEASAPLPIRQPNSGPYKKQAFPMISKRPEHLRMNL

- % of control ([1]; at 1 µM): 105%
- % of control ([1]; at 5 µM): 87%
Compound: C=CC(=O)Nc1cccc(C(=O)Nc2ccc(Nc3cc(-c4[nH]c(SC)nc4C)ccn3)cc2)c1

- dTM [2]: 0 K
Compound: CN(C(=O)c1cnn2cccnc12)c1cc2c(cc1N1CCOCC1)C(=O)N(C[C@@H](F)C(C)(C)O)C2

Compound: C=CC(=O)Nc1cc(-n2c(=O)ccc3cnc4ccc(-c5ccc(NS(C)(=O)=O)cc5)cc4c32)ccc1C
- % of control ([3]; at 1 µM): 74%
- % of control ([3]; at 10 µM): 88%

Compound: Nc1cnc(N2CCc3cc(S(=O)(=O)Nc4c(F)cc(Cl)cc4F)cc(N4CCCC4=O)c32)nc1 [TP-020n]
- % of control [4]: 92%

Compound: O[C@H]1CC[C@H](Nc2ncc3nc(Nc4c(F)cc(F)cc4F)n([C@H]4CCOC4)c3n2)CC1
- % of control [5]: 100%
- % of control [6]: 57%

Compound: N#Cc1cccc(-c2c[nH]c3ncnc(N4CCOCC4)c23)c1
- % of inhibition [7]: -12%
- % of control [8]: 90%
